Experimental data: ChEMBL document CHEMBL1201862, “PubChem BioAssay data set” (2004)
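Grown in 96-well plates, cells were treated for 48 hours with each compound at five concentrations. Insufficient inhibition: endpoint recorded as highest concentration tested. GI50 marks 50% less growth.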 Active and inactive are the calls of the source. Cut-off read from the data, not from the text of the source: active = GI50 up to about 1.1 µM and inactive = higher.

Key:
Test in all cases: NCI-60 cell line screen, 48 h
K562 = tested on: K562
SK-MEL-2 = tested on: SK-MEL-2
M14 = tested on: M14
SK-MEL-28 = tested on: SK-MEL-28
IGROV-1 = tested on: IGROV-1
HOP-62 = tested on: HOP-62
SF-268 = tested on: SF-268
ACHN = tested on: ACHN
A498 = tested on: A498
SNB-75 = tested on: SNB-75
SN12C = tested on: SN12C
RXF 393 = tested on: RXF 393
UO-31 = tested on: UO-31
OVCAR-4 = tested on: OVCAR-4
NCI/ADR-RES = tested on: NCI/ADR-RES
SF-295 = tested on: SF-295
MDA-N = tested on: MDA-N
NCI-H522 = tested on: NCI-H522
EKVX = tested on: EKVX
TK-10 = tested on: TK-10

Measured: GI50

CCOC(=O)COc1ccc2c(C)cc(=O)oc2c1
inactive: K562 > 100 µM | SK-MEL-2 > 100 µM | M14 > 100 µM | SK-MEL-28 > 100 µM | IGROV-1 > 100 µM | HOP-62 > 100 µM | SF-268 > 100 µM | ACHN > 100 µM | A498 > 100 µM | SNB-75 > 100 µM | SN12C > 100 µM | RXF 393 > 100 µM | UO-31 > 100 µM | OVCAR-4 > 100 µM | NCI/ADR-RES > 100 µM | SF-295 > 100 µM | MDA-N > 100 µM | NCI-H522 > 100 µM | EKVX > 100 µM

NC1=CC(C(=O)c2ccncc2)c2nc3ccccc3nc21 (centres undefined)
inactive: SK-MEL-2 > 100 µM | M14 > 100 µM | SK-MEL-28 > 100 µM | IGROV-1 46.6 µM | HOP-62 44.2 µM | SF-268 > 100 µM | TK-10 > 100 µM | ACHN 59.2 µM | A498 > 100 µM | SNB-75 52 µM | SN12C > 100 µM | RXF 393 > 100 µM | UO-31 > 100 µM | OVCAR-4 > 100 µM | NCI/ADR-RES > 100 µM | SF-295 94.4 µM | MDA-N > 100 µM | NCI-H522 > 100 µM | EKVX > 100 µM

CCCCNN
inactive: K562 > 100 µM | SK-MEL-2 > 100 µM | M14 > 100 µM | SK-MEL-28 > 100 µM | IGROV-1 > 100 µM | HOP-62 > 100 µM | TK-10 > 100 µM | ACHN > 100 µM | A498 > 100 µM | SNB-75 > 100 µM | SN12C > 100 µM | RXF 393 > 100 µM | UO-31 > 100 µM | OVCAR-4 > 100 µM | NCI/ADR-RES > 100 µM | SF-295 > 100 µM | MDA-N > 100 µM | NCI-H522 65.3 µM | EKVX > 100 µM

CC(C)(C)NC(=O)/C(=C\Sc1ccccc1)c1ccccc1
inactive: K562 32.7 µM | SK-MEL-2 > 100 µM | M14 > 100 µM | SK-MEL-28 > 100 µM | IGROV-1 > 100 µM | HOP-62 > 100 µM | TK-10 > 100 µM | ACHN > 100 µM | A498 > 100 µM | SNB-75 > 100 µM | SN12C > 100 µM | RXF 393 > 100 µM | UO-31 > 100 µM | OVCAR-4 > 68.4 µM | NCI/ADR-RES > 29 µM | SF-295 > 100 µM | MDA-N 71.1 µM | NCI-H522 6.15 µM | EKVX > 74.6 µM

CC(C)(CO)CNc1cc(Cl)nc(N)n1
inactive: K562 > 100 µM | SK-MEL-2 > 100 µM | SK-MEL-28 > 100 µM | IGROV-1 > 100 µM | HOP-62 > 100 µM | SF-268 > 100 µM | TK-10 > 100 µM | ACHN > 100 µM | A498 > 100 µM | SNB-75 > 100 µM | SN12C > 100 µM | RXF 393 > 100 µM | UO-31 > 100 µM | OVCAR-4 > 100 µM | NCI/ADR-RES > 100 µM | SF-295 > 100 µM | MDA-N > 100 µM | NCI-H522 > 100 µM | EKVX > 100 µM

CC1(C)OC(=O)CC12CCN(Cc1ccccc1)CC2
inactive: K562 > 100 µM | SK-MEL-2 > 100 µM | SK-MEL-28 > 100 µM | IGROV-1 > 100 µM | HOP-62 > 100 µM | SF-268 > 100 µM | TK-10 > 100 µM | ACHN > 100 µM | A498 > 100 µM | SNB-75 > 100 µM | SN12C > 100 µM | RXF 393 > 100 µM | UO-31 > 100 µM | OVCAR-4 > 100 µM | NCI/ADR-RES > 100 µM | SF-295 > 100 µM | MDA-N > 100 µM | NCI-H522 > 100 µM | EKVX > 100 µM
